{"source": "paper PMC8968665", "about": "“Verteporfin is a substrate-selective γ-secretase inhibitor that binds the amyloid precursor protein transmembrane domain” (The Journal of Biological Chemistry, 2022)", "key": {"[1]": {"assay": "Verteporfin aggregation and LMPG micelle size (DLS, 1D 1H NMR)", "assay_type": "physicochemical", "method": "Samples were made according to NMR sample conditions. Solutions were first filtered with a 0.2 μm syringe filter then centrifuged at […] to remove insoluble debris. The solution was then added to the inner chamber of the disposable DLS cuvette. The disposable DLS cuvette was capped and loaded in the DLS instrument. Experiments were carried out at 25 °C. The DLS software (Dynamics 7.5 software; Wyatt Technologies) calculates an apparent hydrodynamic radius (Rh) via the Stokes–Einstein equation (Equation 6):(6) Rh=kT/6πηDt where k is Boltzmann’s constant, T is the absolute temperature, η is sample viscosity, and Dt is the diffusion coefficient. The apparent molecular weight of the detergent or verteporfin particles was calculated in the Dynamics software, as based on the measured apparent radius of hydration, using the assumption that the density of the particle was similar to that of a globular protein."}, "[2]": {"target": "T1, γ-secretase cleavage of C100-Flag (C99) (Homo sapiens, UniProt P05067)", "T1 construct": "C100 is C99 with an added N-terminal Met residue; made in house", "T1 sequence (P05067 672-770 limits assumed)": "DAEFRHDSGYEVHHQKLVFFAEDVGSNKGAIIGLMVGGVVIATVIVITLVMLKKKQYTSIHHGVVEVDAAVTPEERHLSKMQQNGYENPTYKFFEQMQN", "assay": "γ-Secretase IC50 measurement, Aβ40 sandwich ELISA", "assay_type": "biochemical", "conditions": "1 nM purified γ-secretase, 2 µM C100-Flag, 2 h, 37 °C, n=1, error of the fit; read-out: IC50, inhibition of Aβ40 production", "method": "Purified γ-secretase was diluted in standard assay buffer to specified concentrations and incubated at 37 °C for 30 min, followed by the addition of stock solution of verteporfin in DMSO to achieve various final verteporfin concentrations and 2% final DMSO concentration. Purified C99 FLAG was then added to start the proteolytic reactions, which were incubated for 2 h at 37 °C. The concentrations of Aβ40 produced during the proteolysis of C100 FLAG by γ-secretase were determined using a specific sandwich ELISA (Invitrogen). Aβ40 concentrations were plotted as a function of verteporfin concentration, and the resultant sigmoidal curves were fitted to Equation 5 to determine IC50 values ([80], [83]).(5) Y=Min+(Max−Min)/1+(X/IC50)^HillCoefficient"}, "[3]": {"target": "T2, C99 domain of the human amyloid precursor protein (Homo sapiens, UniProt P05067)", "T2 construct": "the transmembrane 99 residue C-terminal (C99) domain; His tag (either the C-terminal hexa-His that is kept, or the N-terminal His of C99-NT2 removed by thrombin); made in house; host or cells: E. coli BL21DE3", "T2 sequence (P05067 672-770 limits assumed)": "as above", "assay": "TROSY NMR titration of C99 by verteporfin, fit to 1:1 binding model", "method": "The preparation of NMR screening samples consisted of final concentrations of 50 μM C99, 2.5% w/v LMPG, […] buffer imidazole, 5% v/v D2O, 0.5 mM EDTA, pH 6.5. To ensure that these final conditions were maintained, the individual components of the screening samples were added from stocks in a specific order. For example, to make 10 ml of screening sample in imidazole NMR buffer, the following was added: (1) 10 by 250 μl frozen stocks of 200 μM protein were thawed on ice and transferred to a 15 ml conical vial; (2) 1.25 ml of 20% w/v LMPG stock (dissolved in H2O) was added to the conical vial, which was mixed by vortexing; (3) 1 ml of 10× concentrated imidazole NMR buffer was added to the conical vial and mixed by vortexing; (4) the sample was then diluted to 10 ml by adding 4.75 ml of ddH2O and 0.5 ml of D2O and allowed to reach equilibrium for at least 60 min. This final pool contained 50 μM C99, 25 mM imidazole, 100 mM NaCl, 2.5% LMPG, 5% v/v D2O, 0.5 mM EDTA, pH 6.5. At that point, the samples (199 μl for each well) were distributed into 96-well plates containing predispensed compounds, thoroughly mixed by pipette, and the complete 200 μl mixtures were transferred to 3 mm x 4 inch NMR tubes. At this point, each 3 mm NMR tube contained a 200 μl sample of 50 μM C99, 50 μM Compound, 25 mM imidazole, 100 mM NaCl, 2.5% w/v LMPG, 5% v/v D2O, 0.5% v/v DMSO, 0.5 mM EDTA, pH 6.5. Loaded NMR tubes were cleaned with 100% Ethanol on a kimwipe, securely capped, and transferred to an NMR tube rack compatible with a Bruker SampleJet system.\nA Bruker Avance III 600 MHz NMR spectrometer equipped with a cryoprobe (CPTCI) and automated sample changer (SampleJet) was used to collect NMR spectra. Sample details are described above. For high-throughput screening data collection, the ^15N-^1H BEST-TROSY (b_trosy3gpph.2) experiment with 64 scans for each of 96 increments and a relaxation delay of 200 ms was run at 318 K for a total data acquisition time of 35 min per sample. To achieve enhanced signal-to-noise ratio, follow-up titrations and control experiments were conducted using the BEST-TROSY pulse program with 200 scans per 96 increments at 318 K, for a total data acquisition time of 110 min per sample. Data were processed using Bruker Topspin 3.6 using a Gaussian window function with a line broadening of -10 and a Gaussian max of 0.1 in both dimensions. NMR data were then further processed and analyzed using NMR-FAM SPARKY, plotted using GraphPad Prism 9, and prepared for publication figures using Affinity Designer.\n2D ^15 N-^1H HSQC NMR data used to calculate dissociations constant (KD) values by first normalizing 2D data using the established formula ([78]) (Equation 1):(1) δ(1H,15N)=√(1/2[δ2H+.14∗δ2N]) Where δ(1H,15N) is the square root of linear chemical shifts in each respective dimension, δH and δN with the Nitrogen normalization factor of 0.14.\nAfter 2D normalization, the data were fit to a hyperbolic binding isotherm using one of the following formulas depending of the data:(2) Y=Bmax∗X/(KD+X)+NS∗X\nFor this equation, Y is the total binding, Bmax is the maximum binding in the same units as Y, X is the added ligand in molar units, KD is the equilibrium dissociation constant in the same units as X, and NS is a linear term to account for either vehicle or nonspecific verteporfin effects.(3) Y=Bmax∗X/(KD+X)\n(§1) For this equation, Y is the total binding, Bmax is the maximum binding in the same units as Y, X is the added ligand in molar units, KD is the equilibrium dissociation constant in the same units as X. 1D NMR-binding curves were generated by directly inputting 1D chemical shift perturbations directly into the proper version of Equation 2. Peak height data, such as that quantified in Figures 4 and S4, were first generated using the peak-picking function in NMRFAM Sparky, and peak heights as a function of ligand concentration were used to generate a KD by addition into Equation 2."}, "[4]": {"assay": "1D 1H NMR titration of empty LMPG micelles by verteporfin", "conditions": "empty 2.5% LMPG micelles, acyl chain methylene peak shifts, n = 1; read-out: KD, one verteporfin binding to one detergent micelle model", "from_the_text": "as §1"}}, "note": "“And” between values parts separate entries of the source, which are not always exact repeats. Equal entries are not always repeated. “Also recorded” adds a separate entry of the source. Where two headings read alike, the source gives them in different places.", "data": [{"substance": "verteporfin", "values": [{"measurement": "effect on LMPG micelle particle size (DLS)", "setting": "[1]; 0 to 200 μM verteporfin, 2.5% LMPG, n = 3", "result": "only modest effects on micelle particle size; also recorded: insensitive"}, {"measurement": "state of verteporfin in micelle-free aqueous solution (1H NMR line width)", "setting": "[1]; 100 μM verteporfin, LMPG below CMC, pH 6.5", "result": "aggregate formation"}, {"measurement": "LMPG concentration at which soluble verteporfin aggregates are fully dispersed (DLS)", "setting": "[1]; 100 μM verteporfin, n = 3", "result": 50, "unit": "mM"}, {"measurement": "IC50", "setting": "[2]", "result": "15 ± 1", "unit": "µM"}, {"measurement": "Kd", "setting": "[3]; C99 in model membranes, read-out: KD of 1:1 complex", "result": "~17", "unit": "µM"}, {"measurement": "Kd", "setting": "[3]; D6PC/DMPC (q = 0.33) bicelles, n = 1, error of the fit, Fig. 3C, read-out: KD from C99 peak E766", "result": "17 ± 4", "unit": "µM"}, {"measurement": "Kd", "setting": "[3]; D6PC/DMPC (q = 0.33) bicelles, n = 1, error of the fit, Fig. 3C, read-out: KD from C99 peak T761", "result": "16 ± 4", "unit": "µM"}, {"measurement": "Kd", "setting": "[3]; LMPG micelles, 50 μM C99, pH 6.5, 318 K, 1:1 binding model, read-out: average dissociation constant (KD) across multiple residues in and around the TM domain", "result": "17 ± 11", "unit": "µM"}, {"measurement": "Kd", "setting": "[3]; depending on the membrane mimetic used (LMPG, DDMB micelles, DHPC-DMPC bicelles), read-out: KD range across membrane mimetics", "result": "15 to 47 µM and 10 to 50 µM"}, {"measurement": "Kd", "setting": "[3]; nonionic DDMB micelles, n=1, error of the fit, Fig. S2C, read-out: KD from fitting of two different peaks", "result": "43 µM and 47 µM"}, {"measurement": "Kd", "setting": "[3]; untagged C99 in DDMB micelles, Fig. S2 title, read-out: KD", "result": "45 ± 22", "unit": "µM"}, {"measurement": "Kd", "setting": "[4]", "result": "53 ± 21", "unit": "µM"}]}]}
